Converted amounts (≈) assume the structure as drawn. “Also recorded” adds a separate entry of the source. Each block holds one molecule with its values, some of them ahead of it.
Columns and labels:
Format in all cases: physicochemical
[1] = Slurry competition of the six anhydrates in n-butanol (thermodynamic assessment); conditions: all anhydrates in equal mass ratios, RT and 50° C.
Description: A total of six anhydrates, Forms A, C, D, E, N, and Q were observed. A thermodynamic assessment of all anhydrates was performed by slurrying all anhydrates in equal mass ratios in a non-solvating solvent, n-Butanol, at RT and 50° C.

[2] = Approximate solubility of Form A in 20 single solvents at RT; conditions: thermodynamic from solid
Description: Approximate solubility of Form A was determined in 20 single solvents at RT, respectively. Approximately 2 mg of Form A was added into a 3-mL glass vial. Corresponding solvents were added stepwise (50 μL-50 μL-200 μL-700 μL) into the vials until the solids were dissolved visually or a total volume of 1 mL was reached. The ranges of approximate solubility were calculated according to the mass of sample, volume of solvent and observation. The results summarized in Table 2 were used to guide the solvent selection in polymorph screening.

[3] = Slurry competition of Form K and Form C at various water activities (critical water activity); conditions: for Relative stability, Form K vs Form C slurry: EtOH/H2O
Source text: One hydrate (Form K) was observed and found to be a hemi-hydrate. […] It was suspected that EtOH may be forming a solvate that favors the formation of Form K because at higher water activities, the hydrate should be more thermodynamically stable. The values and results for obtaining the critical water activity follows the laws of thermodynamics and the results obtained from this experiment can be transferred to another solvent/H2O system. Additional critical water activity experiments were performed in acetone/H2O at Aw=0.5 and 0.9 using Form K and Form C.

[4] = Ambient drying of wet cake solids, form followed by XRPD
Description: Form A obtained from anti-solvent addition in ACN/H2O was further investigated by analyzing the wet solids by XRPD. The sample was covered with 3511 Kapton film to minimize the solvent evaporation from the wet cake. A unique pattern, different from Form A was observed indicating a labile solvate phase forms in this solvent system.
Form B was obtained by temperature cycling in IPA. The formation of Form B was also observed in IPA slurry at RT and 60° C. Form B was further characterized by analyzing the wet cake by XRPD. The sample on the XRPD sample holder was covered by 3511 Kapton Film to minimize the solvent evaporation from the sample. […] Comparing the KF and TGA results, it was concluded that Form B is an IPA solvate, more specifically, a hemi-solvate determined by calculating the API:Solvent stoichiometry from the TGA weight loss to be 1:0.6.
(§1) Form D was obtained by temperature cycling in toluene. The formation of Form D was also observed in 60° C. slurry and slow cooling using toluene. Form D was further characterized by analyzing the wet solids by XRPD. The sample on the XRPD sample holder was covered by 3511 Kapton Film to minimize the solvent evaporation from the sample. […] The minimal weight loss observed indicated an anhydrous phase.
as §1, with “Form E” for “Form D”, “in IPAc/MTBE (1:3 v/v).” for “in toluene.”, “in anti-solvent addition, crash cooling, and” for “in 60° C.”, “slurry at RT experiments” for “slurry and slow cooling”, “using MTBE, 2-MeTHF, or” for “using”
Form F was obtained by temperature cycling in THF/H2O (0.92/0.08 v/v Aw=0.2). The formation of Form F was also observed in RT slurry in THF/H2O at Aw=0.4 and 0.6, and in temperature cycling in THF/H2O (1:3). Form F was further characterized by analyzing the wet solids by XRPD. The sample on the XRPD sample holder was covered by 3511 Kapton film to minimize the solvent evaporation. […] Comparing the KF and TGA results, it was concluded that Form F is likely a THF solvate.

SMILES: CC(=O)N/C(N)=N/C(=N\S(=O)(=O)c1ccc(C(F)(F)F)cc1)N1C[C@H](c2ccccc2)C(c2ccc(Cl)cc2)=N1 [Form A, N-{[(S)-{[3-(4-chlorophenyl)-4-phenyl-4,5-dihydro-1H-pyrazol-1-yl][4-(trifluoromethyl)benzenesulfonamido]methylidene}amino]methanimidoyl}acetamide]
- Relative thermodynamic stability of anhydrates (outcome of slurry competition) [1]: conversion of all anhydrates to Form C
- solubility ([2]; Anisole, organic solvent or mixture): > 10000 µg/mL
- solubility ([2]; EtOH, organic solvent or mixture): > 10000 µg/mL
- solubility ([2]; IPA, organic solvent or mixture): < 3000 µg/mL
- solubility ([2]; MTBE, organic solvent or mixture): < 3000 µg/mL
- solubility ([2]; Toluene, organic solvent or mixture): 2000 to 10000 µg/mL (≈ 3.38 to 16.9 mM)
- solubility ([2]; Water): < 3000 µg/mL
- solubility ([2]; n-heptane, organic solvent or mixture): < 3000 µg/mL

SMILES: CC(=O)N/C(N)=N/C(=N\S(=O)(=O)c1ccc(C(F)(F)F)cc1)N1C[C@H](c2ccccc2)C(c2ccc(Cl)cc2)=N1 [Form C, N-{[(S)-{[3-(4-chlorophenyl)-4-phenyl-4,5-dihydro-1H-pyrazol-1-yl][4-(trifluoromethyl)benzenesulfonamido]methylidene}amino]methanimidoyl}acetamide]
- Relative stability, Form K vs Form C slurry ([3]; Aw>0.9, equal mass ratios): more stable
- Relative thermodynamic stability of anhydrates (outcome of slurry competition) [1]: thermodynamically most stable anhydrous form; also recorded: most stable anhydrate

SMILES: CC(=O)N/C(N)=N/C(=N\S(=O)(=O)c1ccc(C(F)(F)F)cc1)N1C[C@H](c2ccccc2)C(c2ccc(Cl)cc2)=N1 [Form D, N-{[(S)-{[3-(4-chlorophenyl)-4-phenyl-4,5-dihydro-1H-pyrazol-1-yl][4-(trifluoromethyl)benzenesulfonamido]methylidene}amino]methanimidoyl}acetamide]
- Relative thermodynamic stability of anhydrates (outcome of slurry competition) [1]: conversion of all anhydrates to Form C

SMILES: CC(=O)N/C(N)=N/C(=N\S(=O)(=O)c1ccc(C(F)(F)F)cc1)N1C[C@H](c2ccccc2)C(c2ccc(Cl)cc2)=N1 [Form E, N-{[(S)-{[3-(4-chlorophenyl)-4-phenyl-4,5-dihydro-1H-pyrazol-1-yl][4-(trifluoromethyl)benzenesulfonamido]methylidene}amino]methanimidoyl}acetamide]
- Relative thermodynamic stability of anhydrates (outcome of slurry competition) [1]: conversion of all anhydrates to Form C

SMILES: CC(=O)N/C(N)=N/C(=N\S(=O)(=O)c1ccc(C(F)(F)F)cc1)N1C[C@H](c2ccccc2)C(c2ccc(Cl)cc2)=N1 [Form G, N-{[(S)-{[3-(4-chlorophenyl)-4-phenyl-4,5-dihydro-1H-pyrazol-1-yl][4-(trifluoromethyl)benzenesulfonamido]methylidene}amino]methanimidoyl}acetamide]
- Solid form conversion upon ambient drying [4]: converted to Form F

Other lines, results leading:

- Solid form conversion upon ambient drying [4]: converted to Form D
SMILES: CC(=O)N/C(N)=N/C(=N\S(=O)(=O)c1ccc(C(F)(F)F)cc1)N1C[C@H](c2ccccc2)C(c2ccc(Cl)cc2)=N1 [Form H, N-{[(S)-{[3-(4-chlorophenyl)-4-phenyl-4,5-dihydro-1H-pyrazol-1-yl][4-(trifluoromethyl)benzenesulfonamido]methylidene}amino]methanimidoyl}acetamide]

- Solid form conversion upon ambient drying [4]: converted to Form B
SMILES: CC(=O)N/C(N)=N/C(=N\S(=O)(=O)c1ccc(C(F)(F)F)cc1)N1C[C@H](c2ccccc2)C(c2ccc(Cl)cc2)=N1 [Form I, N-{[(S)-{[3-(4-chlorophenyl)-4-phenyl-4,5-dihydro-1H-pyrazol-1-yl][4-(trifluoromethyl)benzenesulfonamido]methylidene}amino]methanimidoyl}acetamide]

- Stability of the hydrate (conclusion of critical water activity experiments) [3]: not a stable hydrate
- Relative stability, Form K vs Form C slurry ([3]; 0.1<Aw<0.9, equal mass ratios): more stable
- Outcome of Form K and Form C slurry ([3]; acetone/H2O, Aw=0.5 and 0.9): conversion to Form C
SMILES: CC(=O)N/C(N)=N/C(=N\S(=O)(=O)c1ccc(C(F)(F)F)cc1)N1C[C@H](c2ccccc2)C(c2ccc(Cl)cc2)=N1 [Form K, N-{[(S)-{[3-(4-chlorophenyl)-4-phenyl-4,5-dihydro-1H-pyrazol-1-yl][4-(trifluoromethyl)benzenesulfonamido]methylidene}amino]methanimidoyl}acetamide]

- Relative thermodynamic stability of anhydrates (outcome of slurry competition) [1]: conversion of all anhydrates to Form C
SMILES: CC(=O)N/C(N)=N/C(=N\S(=O)(=O)c1ccc(C(F)(F)F)cc1)N1C[C@H](c2ccccc2)C(c2ccc(Cl)cc2)=N1 [Form N, N-{[(S)-{[3-(4-chlorophenyl)-4-phenyl-4,5-dihydro-1H-pyrazol-1-yl][4-(trifluoromethyl)benzenesulfonamido]methylidene}amino]methanimidoyl}acetamide]

- Solid form conversion upon ambient drying [4]: converted to Form E
SMILES: CC(=O)N/C(N)=N/C(=N\S(=O)(=O)c1ccc(C(F)(F)F)cc1)N1C[C@H](c2ccccc2)C(c2ccc(Cl)cc2)=N1 [Form P, N-{[(S)-{[3-(4-chlorophenyl)-4-phenyl-4,5-dihydro-1H-pyrazol-1-yl][4-(trifluoromethyl)benzenesulfonamido]methylidene}amino]methanimidoyl}acetamide]

- Relative thermodynamic stability of anhydrates (outcome of slurry competition) [1]: conversion of all anhydrates to Form C
SMILES: CC(=O)N/C(N)=N/C(=N\S(=O)(=O)c1ccc(C(F)(F)F)cc1)N1C[C@H](c2ccccc2)C(c2ccc(Cl)cc2)=N1 [Form Q, N-{[(S)-{[3-(4-chlorophenyl)-4-phenyl-4,5-dihydro-1H-pyrazol-1-yl][4-(trifluoromethyl)benzenesulfonamido]methylidene}amino]methanimidoyl}acetamide]
